# According to patent US11566007B2, “Ras inhibitors” (Revolution Medicines, Inc., priority 2019, dated 2023):
# Where “and” joins values, the source holds several entries; their conditions need not be identical. Equal values may be shown once. Read-outs that look alike come from different tables or passages of the source.
# Tests used:
# NCI-H358 (K-Ras G12C) = assay: CellTiter-Glo cell viability assay, NCI-H358; assay type: cell-based, human; conditions: Homo sapiens, NCI-H358, 120 h, NCI-H358, 5-day treatment; class symbols; read-out: Additional H358 Cell Viability assay data (K-Ras G12C, IC50)
# Procedure, shortened: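 Cells seeded, compound added directly, 5-day exposure. Plates to RT ~30 min, CellTiter-Glo luminescence read. Normalized to DMSO avg (x100); 4-parameter logistic fit.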
# K-Ras G13C = K-Ras G13C (Homo sapiens (Human), UniProt P01116+P62937, G13C); assay: Ras-Raf (BRAF RBD) disruption / FRET / MOA assay, KRAS G13C; assay type: biochemical; conditions: KRAS G13C; Ras-Raf disruption/FRET/MOA assay; read-out: IC50* KRAS G13C FRET data
# K-Ras G13C, sequence (P01116-2 other isoform, or with tags, fused parts or gaps G13C): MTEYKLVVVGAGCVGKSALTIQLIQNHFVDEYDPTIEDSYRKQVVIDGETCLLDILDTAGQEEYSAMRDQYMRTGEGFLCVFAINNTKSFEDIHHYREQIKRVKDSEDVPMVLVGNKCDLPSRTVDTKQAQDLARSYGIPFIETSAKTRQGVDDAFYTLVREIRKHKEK
# K-Ras G13C, sequence (P62937 whole entry): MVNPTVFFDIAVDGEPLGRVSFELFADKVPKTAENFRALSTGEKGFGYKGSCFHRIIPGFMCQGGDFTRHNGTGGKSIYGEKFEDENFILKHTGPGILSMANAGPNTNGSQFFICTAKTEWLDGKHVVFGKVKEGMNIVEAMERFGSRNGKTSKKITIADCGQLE
# Procedure, shortened: (§1)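 Compounds, top final concentration 30 μM in 10-point 3-fold series, incubated 3 hours at 25° C with nucleotide-loaded Ras, cyclophilin A and BRAF RBD.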
# NRAS G12C = NRAS G12C (Homo sapiens (Human), UniProt P01111+P62937, G12C); assay: Ras-Raf (BRAF RBD) disruption / FRET / MOA assay, NRAS G12C; assay type: biochemical; conditions: read-out: IC50* NRAS G12C FRET data
# NRAS G12C, sequence (P01111 whole entry G12C): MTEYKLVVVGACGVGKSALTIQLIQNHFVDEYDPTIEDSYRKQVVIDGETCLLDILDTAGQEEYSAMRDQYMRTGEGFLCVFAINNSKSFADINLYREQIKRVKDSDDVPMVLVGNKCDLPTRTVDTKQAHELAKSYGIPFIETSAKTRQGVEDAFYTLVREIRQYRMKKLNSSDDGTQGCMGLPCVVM
# NRAS G12C, sequence (P62937 whole entry): as the sequence (P62937 whole entry) above
# Procedure, shortened: as §1
# KRAS WT = KRAS WT (Homo sapiens (Human), UniProt P01116+P62937); assay: Ras-Raf (BRAF RBD) disruption / FRET / MOA assay, KRAS WT; assay type: biochemical; conditions: read-out: IC50* KRAS WT FRET data
# KRAS WT, sequence (P01116-2 other isoform, or with tags, fused parts or gaps): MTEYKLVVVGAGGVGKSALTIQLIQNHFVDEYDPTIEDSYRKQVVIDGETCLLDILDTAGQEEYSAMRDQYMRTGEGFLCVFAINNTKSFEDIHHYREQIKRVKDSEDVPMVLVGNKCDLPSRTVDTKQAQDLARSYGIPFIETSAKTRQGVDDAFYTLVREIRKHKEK
# KRAS WT, sequence (P62937 whole entry): as the sequence (P62937 whole entry) above
# Procedure, shortened: as §1
# KRAS G12S = KRAS G12S (Homo sapiens (Human), UniProt P01116+P62937, G12S); assay: Ras-Raf (BRAF RBD) disruption / FRET / MOA assay, KRAS G12S; assay type: biochemical; conditions: Ras-Raf disruption/FRET/MOA assay; class symbols; read-out: KRAS G12S FRET data IC50
# KRAS G12S, sequence (P01116-2 other isoform, or with tags, fused parts or gaps G12S): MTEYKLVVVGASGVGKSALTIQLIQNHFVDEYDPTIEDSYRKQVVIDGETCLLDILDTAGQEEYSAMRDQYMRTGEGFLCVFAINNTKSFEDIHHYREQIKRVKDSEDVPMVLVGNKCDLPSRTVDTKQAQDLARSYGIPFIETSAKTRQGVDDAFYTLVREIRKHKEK
# KRAS G12S, sequence (P62937 whole entry): as the sequence (P62937 whole entry) above
# Procedure, shortened: as §1
# KRAS G13D = KRAS G13D (Homo sapiens (Human), UniProt P01116+P62937, G13D); assay: Ras-Raf (BRAF RBD) disruption / FRET / MOA assay, KRAS G13D; assay type: biochemical; conditions: read-out: IC50* KRAS G13D FRET data
# KRAS G13D, sequence (P01116-2 other isoform, or with tags, fused parts or gaps G13D): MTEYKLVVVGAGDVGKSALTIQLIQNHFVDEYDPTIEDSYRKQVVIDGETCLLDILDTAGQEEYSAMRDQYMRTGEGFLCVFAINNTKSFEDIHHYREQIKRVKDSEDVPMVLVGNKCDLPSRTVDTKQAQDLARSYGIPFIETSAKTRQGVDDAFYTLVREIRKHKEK
# KRAS G13D, sequence (P62937 whole entry, canonical isoform): as the sequence (P62937 whole entry) above
# Procedure: The purpose of this biochemical assay is to measure the ability of test compounds to facilitate ternary complex formation between a nucleotide-loaded Ras isoform and cyclophilin A; the resulting ternary complex disrupts binding to a BRAF^RBD construct, inhibiting Ras signaling through a RAF effector.
# (§2) Compound is present in plate wells as a 10-point 3-fold dilution series starting at a final concentration of 30 μM. After incubation at 25° C. for 3 hours, a mixture of Anti-His Eu-W1024 and anti-GST allophycocyanin is then added to assay sample wells at final concentrations of 10 nM and 50 nM, respectively, and the reaction incubated for an additional 1.5 hours. […] Compounds that facilitate disruption of a Ras:RAF complex are identified as those eliciting a decrease in the TR-FRET ratio relative to DMSO control wells.
# This protocol may also be executed substituting other Ras proteins or nucleotides.
# The purpose of this biochemical assay was to measure the ability of test compounds to facilitate ternary complex formation between a nucleotide-loaded K-Ras isoform and Cyclophilin A; the resulting ternary complex disrupts binding to a BRAF^RBD construct, inhibiting K-Ras signaling through a RAF effector. Data is reported as IC50 values.
# as §2, with “Compound was” for “Compound is”, “allophycocyanin was” for “allophycocyanin is”, “a K-Ras:RAF” for “a Ras:RAF”, “complex were” for “complex are”
# KRAS G12V = KRAS G12V (Homo sapiens (Human), UniProt P01116+P62937, G12V); assay: Ras-Raf (BRAF RBD) disruption / FRET / MOA assay, KRAS G12V; assay type: biochemical; conditions: read-out: IC50* KRAS G12V FRET data
# KRAS G12V, sequence (P01116-2 other isoform, or with tags, fused parts or gaps G12V): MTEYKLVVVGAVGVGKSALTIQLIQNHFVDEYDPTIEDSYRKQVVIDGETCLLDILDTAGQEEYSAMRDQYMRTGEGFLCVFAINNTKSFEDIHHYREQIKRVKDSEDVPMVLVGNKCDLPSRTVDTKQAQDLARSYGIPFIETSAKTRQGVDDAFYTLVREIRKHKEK
# KRAS G12V, sequence (P62937 whole entry): as the sequence (P62937 whole entry) above
# Procedure, shortened: as §1
# K-Ras G12C = K-Ras G12C (Homo sapiens (Human), UniProt P01116+P62937, G12C); assay: Ras-Raf (BRAF RBD) disruption / FRET / MOA assay, KRAS G12C; assay type: biochemical; conditions: KRAS G12C; Ras-Raf disruption/FRET/MOA assay; read-out: IC50* KRAS G12C FRET data
# K-Ras G12C, sequence (P01116-2 other isoform, or with tags, fused parts or gaps G12C): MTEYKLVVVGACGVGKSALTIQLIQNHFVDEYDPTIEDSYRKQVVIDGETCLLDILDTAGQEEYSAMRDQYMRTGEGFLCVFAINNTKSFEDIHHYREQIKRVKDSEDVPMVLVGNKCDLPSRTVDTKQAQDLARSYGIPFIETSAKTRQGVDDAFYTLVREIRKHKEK
# K-Ras G12C, sequence (P62937 whole entry): as the sequence (P62937 whole entry) above
# Procedure, shortened: as §1
# KRAS G12D = KRAS G12D (Homo sapiens (Human), UniProt P01116+P62937, G12D); assay: Ras-Raf (BRAF RBD) disruption / FRET / MOA assay, KRAS G12D; assay type: biochemical; conditions: Ras-Raf disruption/FRET/MOA assay; class symbols; read-out: KRAS G12D FRET data IC50
# KRAS G12D, sequence (P01116-2 other isoform, or with tags, fused parts or gaps G12D): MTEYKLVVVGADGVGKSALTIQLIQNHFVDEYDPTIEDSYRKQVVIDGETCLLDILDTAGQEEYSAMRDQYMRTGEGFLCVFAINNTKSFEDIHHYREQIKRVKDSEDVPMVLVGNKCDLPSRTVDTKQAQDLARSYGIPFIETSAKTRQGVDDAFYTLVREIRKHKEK
# KRAS G12D, sequence (P62937 whole entry): as the sequence (P62937 whole entry) above
# Procedure, shortened: as §1
# [1] = tested on: NCI-H358 cells (K-Ras G12C); assay: Potency assay: pERK in NCI-H358 cells; assay type: cell-based, human; conditions: H358 KRAS G12C, read-out: pERK EC50
# Procedure, shortened: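 pERK decrease read by AlphaLISA SureFire p-ERK1/2 or In-Cell Western after 4 h compound exposure at 37 °C, 5% CO2.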
IC50 (NCI-H358 (K-Ras G12C)) [µM],IC50 (K-Ras G13C) [µM],IC50 (NRAS G12C),IC50 (KRAS WT) [µM],IC50 (KRAS G12S) [µM],IC50 (KRAS G13D) [µM],IC50 (KRAS G12V) [µM],IC50 (K-Ras G12C),IC50 (KRAS G12D) [µM],"EC50 ([1]; Homo sapiens, NCI-H358) [µM]",SMILES,EC50 [1] [µM]
0.1 to 1,> 10,> 10 µM,> 10,> 10,> 10,> 10,> 10 µM,> 10,,"C=CC(=O)N1CC[C@H](C(=O)N(C)[C@H](C(=O)N[C@H]2Cc3cccc(c3)-c3ccc4c(c3)c(c(-c3ccccc3[C@H](C)OC)n4CC)CC(C)(C)COC(=O)[C@@H]3CCCN(N3)C2=O)C(C)C)C1 (atropisomer, axis not shown) [Example A114]",
,0.1 to 1,0.1 to 1 µM,1 to 10,1 to 10,1 to 10,1 to 10,0.1 to 1 µM,1 to 10,< 5,"C=CC(=O)N1CC[C@@H](C(=O)N(C)[C@H](C(=O)N[C@H]2Cc3cccc(c3)-c3ccc4c(c3)c(c(-c3cccnc3[C@H](C)OC)n4CC)CC(C)(C)COC(=O)[C@@H]3CCCN(N3)C2=O)C(C)C)C1 (atropisomer, axis not shown) [Example A488]",
,1 to 10,0.1 to 1 µM,1 to 10,1 to 10,1 to 10,1 to 10,0.1 to 1 µM,1 to 10,,"C=CC(=O)N1CC[C@H](C(=O)N(C)[C@H](C(=O)N[C@H]2Cc3nc(cs3)-c3ccc4c(c3)c(c(-c3cc(C5=CCN(C)CC5)cnc3[C@H](C)OC)n4CC)CC(C)(C)COC(=O)[C@@H]3CCCN(N3)C2=O)C(C)C)C1 (atropisomer, axis not shown) [Example A520]",< 5
,0.1 to 1,< 0.01 µM,> 10,> 10,1 to 10,> 10,< 0.01 µM,1 to 10,< 5,CCn1c(-c2cnccc2COC)c2c3cc(ccc31)-c1ccnc(c1)C[C@H](NC(=O)[C@H](C(C)C)N(C)C(=O)[C@H]1CCN(C(=O)C#CCN(C)C)C1)C(=O)N1CCC[C@H](N1)C(=O)OCC(C)(C)C2 [Example A130],
,1 to 10,0.01 to 0.1 µM and 0.1 to 1 µM,> 10,> 10,1 to 10,> 10,0.01 to 0.1 µM and 0.1 to 1 µM,1 to 10,< 5,CCn1c(-c2cncnc2)c2c3cc(ccc31)-c1cccc(c1)C[C@H](NC(=O)[C@H](C(C)C)N(C)C(=O)[C@H]1CCN(C(=O)C#CCN(C)C)C1)C(=O)N1CCC[C@H](N1)C(=O)OCC(C)(C)C2 [Example A144],

SMILES,IC50 (NCI-H358 (K-Ras G12C)) [µM],IC50 (K-Ras G13C) [µM],IC50 (NRAS G12C),IC50 (KRAS WT) [µM],IC50 (KRAS G12S) [µM],IC50 (KRAS G13D) [µM],IC50 (KRAS G12V) [µM],IC50 (K-Ras G12C),IC50 (KRAS G12D) [µM],"EC50 ([1]; Homo sapiens, NCI-H358) [µM]",EC50 [1] [µM]
"C=CC(=O)N1CC[C@H](C(=O)N(C)[C@H](C(=O)N[C@H]2Cc3cccc(c3)-c3ccc4c(c3)c(c(-c3cc(C5CCN(C)CC5)cnc3[C@H](C)OC)n4CC)CC(C)(C)COC(=O)[C@@H]3CCCN(N3)C2=O)C(C)C)C1 (atropisomer, axis not shown) [Example A515]",,0.1 to 1,0.01 to 0.1 µM,1 to 10,0.1 to 1,1 to 10,1 to 10,0.01 to 0.1 µM,1 to 10,< 5,
"C=CC(=O)Nc1cnc(C(=O)N(C)[C@H](C(=O)N[C@H]2Cc3cccc(c3)-c3ccc4c(c3)c(c(-c3cccnc3[C@H](C)OC)n4CC)CC(C)(C)COC(=O)[C@@H]3CCCN(N3)C2=O)C(C)C)n1C (atropisomer, axis not shown) [Example A525]",,0.01 to 0.1,0.01 to 0.1 µM,1 to 10,1 to 10,1 to 10,1 to 10,0.01 to 0.1 µM,1 to 10,,< 5
